Measured values from PubChem BioAssay (NCI).
“And” between values parts separate entries of the source, which are not always exact repeats. Equal values may be shown once.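 Compound exposure: 48 hours, 5 concentrations, 96-well plates. GI50: concentration for 50% inhibition of growth. At the TGI there is no net growth.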

Key:
Experiment in all cases: DTP human tumour cell line panel, 48 h
[1] = tested on: SK-MEL-5 melanoma
[2] = tested on: SK-MEL-28 melanoma
[3] = tested on: OVCAR-4 ovarian
[4] = tested on: 786-0 renal
[5] = tested on: U251 CNS
[6] = tested on: NCI/ADR-RES ovarian
[7] = tested on: SF-539 CNS
[8] = tested on: UO-31 renal
[9] = tested on: SNB-19 CNS
[10] = tested on: NCI-H23 lung

Structure (SMILES)	GI50 [1]	TGI [1]	GI50 [2]	TGI [2]	GI50 [3]	TGI [3]	GI50 [4]	TGI [4]	GI50 [5]	TGI [5]	GI50 [6]	TGI [6]	GI50 [7]	TGI [7]	GI50 [8]	TGI [8]	GI50 [9]	TGI [9]	GI50 [10]	TGI [10]
CN(C)C/C=C/C(=O)Nc1ccc(C(=O)N2CCC[C@@H](Nc3ncc(Cl)c(-c4c[nH]c5ccccc45)n3)C2)cc1	0.231 µM	0.618 µM	0.121 µM	0.942 µM	0.0664 µM	9.74 µM	1.96 µM	8.38 µM	0.306 µM	10 µM	32.8 µM	> 100 µM	0.176 µM	0.65 µM	9.84 µM	23 µM	0.196 µM	11.1 µM	0.189 µM	0.783 µM
Cc1cc(NC(=O)NC(=O)c2ccccc2N(C)C)ccc1Oc1ncc(Br)cn1		4.11 µM		> 63.1 µM	3.45 µM	> 68.1 µM	0.322 µM	44.6 µM	0.436 µM	39.8 µM		24.6 µM	0.208 µM	0.548 µM and 1.03 µM	0.584 µM	> 63.1 µM	0.749 µM	> 81.5 µM	2.51 µM	53.4 µM
COc1ccc(C(=O)C[C@]2(O)C(=O)Nc3c(Cl)ccc(Cl)c32)cc1	0.573 µM	22.3 µM	6.54 µM	> 100 µM	12 µM	> 100 µM	2.61 µM	> 100 µM	0.508 µM	> 100 µM	0.379 µM		0.478 µM	3.99 µM	1.47 µM	> 100 µM	1.05 µM	> 100 µM	1.51 µM	> 100 µM
Cn1cnc([N+](=O)[O-])c1Sc1nc(N)nc2nc[nH]c12	3.89 µM	22.4 µM	> 42.5 µM	> 100 µM	4.38 µM	> 100 µM	2.04 µM	> 100 µM	23 µM	> 100 µM	2.17 µM	> 100 µM	3.15 µM	> 100 µM	4.71 µM	> 100 µM	> 100 µM	> 100 µM	5.61 µM	> 100 µM
O=C(O)Cn1ccnc1[N+](=O)[O-]		> 100 µM		> 100 µM		> 100 µM		> 100 µM		> 100 µM		> 100 µM		> 100 µM		> 100 µM		> 100 µM		> 100 µM
O=C(Nc1ccccc1O)c1ccc(CNC(=O)c2ccsc2Nc2ccnc(C(F)(F)F)c2)cc1	1.69 µM	4.07 µM	2.15 µM	6.79 µM	1.74 µM	> 100 µM	2.29 µM	5.34 µM	1.65 µM	5.07 µM	2.23 µM	8.52 µM	1.95 µM	18.1 µM	1.32 µM	4.34 µM	2.97 µM	13.2 µM	1.72 µM	4.88 µM
CC[C@@]1(O)C(=O)OCc2c1cc1n(c2=O)Cc2cc3c(N)cccc3nc2-1	0.0214 µM	0.0806 µM		16.3 µM		3.62 µM	0.0048 µM	0.0457 µM	0.00889 µM	1.55 µM	0.0158 µM and < 0.0151 µM	2.08 µM	0.00511 µM	0.0184 µM	0.00841 µM	0.127 µM		6.05 µM	0.00525 µM	0.0511 µM and 0.162 µM
COc1ccc(/C=C(/C(=O)n2cnnn2)c2cc(OC)c(OC)c(OC)c2)cc1	3.12 µM	29.4 µM	7.37 µM	> 100 µM	40.5 µM	> 100 µM	4.76 µM	> 100 µM	4.22 µM	> 100 µM	3.87 µM	> 100 µM	3.2 µM	19.9 µM	5.41 µM	> 100 µM	4.25 µM	> 100 µM	5.54 µM	> 100 µM
Cn1cc(CO)c2ccccc21	48.6 µM	> 100 µM	85.9 µM	> 100 µM	56.5 µM	> 100 µM	> 100 µM	> 100 µM	40.3 µM	> 100 µM	27.1 µM	> 100 µM	40.6 µM	> 100 µM	4.28 µM	> 100 µM	> 100 µM	> 100 µM	48.2 µM	> 100 µM
NC(=O)C(=O)n1ncc(Cl)c(Cl)c1=O		39.4 µM		30.5 µM		46.9 µM		58.5 µM		> 60.3 µM		> 100 µM		86.1 µM		48.1 µM		> 100 µM		52.9 µM
CN(C)CCCN1c2ccccc2Sc2ccc(Cl)cc21	1.71 µM and 1.77 µM	3.11 µM and 3.35 µM	2.03 µM and 3.65 µM	4.69 µM and 14.4 µM	7.84 µM and 9.23 µM	20.7 µM and 22.5 µM	3.81 µM and 12 µM	14.2 µM and 26.6 µM	2.62 µM and 3.46 µM	7.9 µM and 14.4 µM	11.9 µM and 9.23 µM	25.1 µM and 22.4 µM	3.22 µM and 11.4 µM	7.79 µM and 26 µM	2.89 µM and 3.46 µM	13.7 µM and 17.2 µM	7.01 µM and 11.9 µM	20.9 µM and 25 µM	8.92 µM and 13.3 µM	22.2 µM and 27.6 µM
Fc1c[c-]c(-c2ccccn2)c(F)c1.[CH3-].[Pt+2].c1ccc(P(C[PH+](c2ccccc2)c2ccccc2)c2ccccc2)cc1	0.714 µM	1.37 µM	0.512 µM	1.52 µM	0.61 µM	3.71 µM	0.75 µM	1.65 µM	0.347 µM	1.06 µM	2.53 µM	11.9 µM	0.838 µM	1.62 µM	0.731 µM	1.41 µM	0.403 µM	1.32 µM	0.563 µM	1.99 µM
CC(C)(CO)N=Cc1ccccc1[O-].CC(C)(CO)N=Cc1ccccc1[O-].[Co+2]	42.5 µM	> 100 µM	58.6 µM	> 100 µM	71.9 µM	> 100 µM	42.1 µM	> 100 µM	74.9 µM	> 100 µM	> 100 µM	> 100 µM	66.5 µM	> 100 µM	44.9 µM	> 100 µM	> 100 µM	> 100 µM	72.7 µM	> 100 µM
